For assay [1], the target named is T1, human calcitonin receptor (hCTR) (Homo sapiens, UniProt P30988).
T1 construct: host or cells: BHK (Baby Hamster Kidney), Hollex-1 cell line
T1 sequence (P30988 25-474): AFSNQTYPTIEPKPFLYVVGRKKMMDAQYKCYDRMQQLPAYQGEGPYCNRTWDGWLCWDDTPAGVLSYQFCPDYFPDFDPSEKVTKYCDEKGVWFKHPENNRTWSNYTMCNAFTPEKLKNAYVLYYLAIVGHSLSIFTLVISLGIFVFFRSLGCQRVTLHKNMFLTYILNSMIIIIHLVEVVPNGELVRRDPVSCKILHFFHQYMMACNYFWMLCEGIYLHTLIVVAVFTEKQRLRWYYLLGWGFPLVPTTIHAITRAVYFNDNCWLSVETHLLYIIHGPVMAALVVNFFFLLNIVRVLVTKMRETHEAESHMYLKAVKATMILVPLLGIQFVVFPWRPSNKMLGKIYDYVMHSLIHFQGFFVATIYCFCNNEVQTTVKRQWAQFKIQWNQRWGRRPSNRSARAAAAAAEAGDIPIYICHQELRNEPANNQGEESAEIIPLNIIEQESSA
The assay is described as follows: Human calcitonin receptor (hCTR) in vitro potency assay, CRE-luciferase reporter in BHK cells. Particulars: BHK hCTR/CRE-Luc cells, 3 hours incubation, assay buffer with 1% ovalbumin; read-out: hCalcR potency, EC50. It counts as cell-based. In short, it runs like this:
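Luciferase signal from a CRE reporter served as the cAMP read-out after 3 h, 37 °C exposure to compound. Cells were stably transfected BHK expressing hCTR, and the buffer was phenol-red-free DMEM with 10 mM HEPES and 1% ovalbumin. Compounds were tested as 7-point, 7-fold dilutions, often from about 10 nM.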

Assay [2] concerns the target T2, human amylin receptor (hAMYR3) (Homo sapiens, UniProt O60896+P30988).
T2 construct: host or cells: BHK (Baby Hamster Kidney), Hollex-1 cell line further transfected with RAMP3
The assay is described as follows: Human amylin receptor (hAMYR3) in vitro potency assay, CRE-luciferase reporter in BHK cells. The note with it: BHK hAMYR3/CRE-Luc cells, 3 hours incubation, assay buffer with 1% ovalbumin. Type of assay: cell-based. In short, it runs like this: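 Luminescence from a CRE-driven luciferase reporter reflects cAMP-mediated receptor activation. Peptides were serially diluted (7 concentrations, 7-fold steps, typically starting near 10 nM) in buffer with 1% ovalbumin and applied for 3 h at 37 °C to BHK cells co-expressing calcitonin receptor (a) and RAMP3.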

Starred links: 1 amine or outer side, 2 acyl side, 3 side chain; linkers in the order of their positions; H or OH if unused. Residues, ends and D or L forms follow the SMILES beside them. *: point of attachment. C20 diacid = O=C(O)CCCCCCCCCCCCCCCCCCC(=O)*; C18 diacid = O=C(O)CCCCCCCCCCCCCCCCC(=O)*; C16 diacid = O=C(O)CCCCCCCCCCCCCCC(=O)*; γGlu = O=C(O)[C@H](CCC(=O)[*:2])N[*:1]

T2 sequence (O60896 24-148, one chain of several): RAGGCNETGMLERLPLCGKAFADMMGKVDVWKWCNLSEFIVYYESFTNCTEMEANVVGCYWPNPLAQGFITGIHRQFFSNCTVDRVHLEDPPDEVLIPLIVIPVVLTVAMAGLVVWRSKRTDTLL

For orientation: EC50 means the midpoint of the concentration-response curve. For `CC[C@H](C)[C@H](NC(=O)[C@@H]1CCCN1C(=O)CNC(=O)[C@H](Cc1ccccc1)NC(=O)[C@H](Cc1c[nH]cn1)NC(=O)[C@H](Cc1c[nH]cn1)NC(=O)[C@H](CC(C)C)NC(=O)[C@H](Cc1ccccc1)NC(=O)[C@H](CCC(=O)O)NC(=O)[C@H](C)NC(=O)[C@H](CC(C)C)NC(=O)[C@H](CCCNC(=N)N)NC(=O)[C@H](CCC(N)=O)NC(=O)[C@@H](NC(=O)[C@H](CCC(N)=O)NC(=O)[C@H](C)NC(=O)[C@@H](NC(=O)[C@H](CO)NC(=O)[C@H](CC(C)C)NC(=O)[C@H](Cc1c[nH]cn1)NC(=O)[C@H](CO)NC(=O)[C@H](C)NC(=O)CC[C@H](NC(=O)CCCCCCCCCCCCCCCCC(=O)O)C(=O)O)[C@@H](C)O)[C@@H](C)O)C(=O)N[C@@H](CC(C)C)C(=O)N1CCC[C@H]1C(=O)N1CCC[C@H]1C(=O)N[C@H](C(=O)N[C@@H](CC(=O)O)C(=O)N[C@H](C(=O)NCC(=O)N[C@@H](CO)C(=O)N[C@@H](CCC(=O)O)C(=O)N[C@H](C(=O)N1CCC[C@H]1C(N)=O)[C@@H](C)O)C(C)C)[C@@H](C)O` [Compound 28, N^1-[(4S)-4-carboxy-4-(17-carboxyheptadecanoylamino)butanoyl]-[Ala1,Ser2,His3,Leu4,Ser5,Ala7,Gln8,Glu14,His17,Pro25,Pro28,Pro29,Asp31,Glu35,Pro37],des-(19-22)-human amylin] ({C18 diacid-γGlu}-ASHLSTAQTQRLAEFLHHFGPILPPTDVGSETP-NH2), the concentration for a half-maximal effect (EC50) in assay [1] was 1.72 pM; in assay [2] it was 2.06 pM.
As for `CC[C@H](C)[C@H](NC(=O)[C@@H]1CCCN1C(=O)CNC(=O)[C@H](Cc1ccccc1)NC(=O)[C@H](CC(N)=O)NC(=O)[C@H](CC(=O)O)NC(=O)[C@H](CO)NC(=O)[C@H](CO)NC(=O)[C@H](Cc1c[nH]cn1)NC(=O)[C@H](Cc1c[nH]cn1)NC(=O)[C@H](CC(C)C)NC(=O)[C@H](Cc1ccccc1)NC(=O)[C@H](CCC(=O)O)NC(=O)[C@H](C)NC(=O)[C@H](CC(C)C)NC(=O)[C@H](CCCNC(=N)N)NC(=O)[C@H](C)NC(=O)[C@@H](NC(=O)[C@H](CCC(N)=O)NC(=O)[C@H](C)NC(=O)[C@@H](NC(=O)[C@H](CO)NC(=O)[C@H](CC(C)C)NC(=O)[C@H](Cc1c[nH]cn1)NC(=O)[C@H](CO)NC(=O)[C@H](C)NC(=O)CC[C@H](NC(=O)CCCCCCCCCCCCCCC(=O)O)C(=O)O)[C@@H](C)O)[C@@H](C)O)C(=O)N[C@@H](CC(C)C)C(=O)N1CCC[C@H]1C(=O)N1CCC[C@H]1C(=O)N[C@H](C(=O)N[C@@H](CC(=O)O)C(=O)N[C@H](C(=O)NCC(=O)N[C@@H](CO)C(=O)N[C@@H](CC(N)=O)C(=O)N[C@H](C(=O)N1CCC[C@H]1C(N)=O)[C@@H](C)O)C(C)C)[C@@H](C)O` [Compound 20, N^1-[(4S)-4-carboxy-4-(15-carboxypentadecanoylamino)butanoyl]-[Ala1,Ser2,His3,Leu4,Ser5,Ala7,Gln8,Ala10,Glu14,His17,Asp21,Pro25,Pro28,Pro29,Asp31,Pro37]-human amylin] ({C16 diacid-γGlu}-ASHLSTAQTARLAEFLHHSSDNFGPILPPTDVGSNTP-NH2), the figures for the EC50 in assay [1] and in assay [2] were 1.5 pM and 1.62 pM, respectively.
For `CC[C@H](C)[C@H](NC(=O)[C@@H]1CCCN1C(=O)CNC(=O)[C@H](Cc1ccccc1)NC(=O)[C@H](CC(N)=O)NC(=O)[C@H](CC(=O)O)NC(=O)[C@H](CO)NC(=O)[C@H](CO)NC(=O)[C@H](Cc1c[nH]cn1)NC(=O)[C@H](Cc1c[nH]cn1)NC(=O)[C@H](CC(C)C)NC(=O)[C@H](Cc1ccccc1)NC(=O)[C@H](CCC(=O)O)NC(=O)[C@H](C)NC(=O)[C@H](CC(C)C)NC(=O)[C@H](CCCNC(=N)N)NC(=O)[C@H](CCC(N)=O)NC(=O)[C@@H](NC(=O)[C@H](CCC(N)=O)NC(=O)[C@H](C)NC(=O)[C@@H](NC(=O)[C@H](CO)NC(=O)[C@H](CC(C)C)NC(=O)[C@H](Cc1c[nH]cn1)NC(=O)[C@H](CO)NC(=O)[C@H](C)NC(=O)CC[C@H](NC(=O)CCCCCCCCCCCCCCCCC(=O)O)C(=O)O)[C@@H](C)O)[C@@H](C)O)C(=O)N[C@@H](CC(C)C)C(=O)N1CCC[C@H]1C(=O)N1CCC[C@H]1C(=O)N[C@H](C(=O)N[C@@H](CC(=O)O)C(=O)N[C@H](C(=O)NCC(=O)N[C@@H](CO)C(=O)N[C@@H](CC(N)=O)C(=O)N[C@H](C(=O)N1CCC[C@H]1C(N)=O)[C@@H](C)O)C(C)C)[C@@H](C)O` [Compound 21, N^1-[(4S)-4-carboxy-4-(17-carboxyheptadecanoylamino)butanoyl]-[Ala1,Ser2,His3,Leu4,Ser5,Ala7,Gln8,Glu14,His17,Asp21,Pro25,Pro28,Pro29,Asp31,Pro37]-human amylin] ({C18 diacid-γGlu}-ASHLSTAQTQRLAEFLHHSSDNFGPILPPTDVGSNTP-NH2) the same measures were 1.89 pM and 1.64 pM.
Consider `CC[C@H](C)[C@H](NC(=O)[C@@H]1CCCN1C(=O)CNC(=O)[C@H](Cc1ccccc1)NC(=O)[C@H](Cc1c[nH]cn1)NC(=O)[C@H](Cc1c[nH]cn1)NC(=O)[C@H](CC(C)C)NC(=O)[C@H](Cc1ccccc1)NC(=O)[C@H](CCC(=O)O)NC(=O)[C@H](C)NC(=O)[C@H](CC(C)C)NC(=O)[C@H](CCCNC(=N)N)NC(=O)[C@H](CCC(N)=O)NC(=O)[C@@H](NC(=O)[C@H](CCC(N)=O)NC(=O)[C@H](C)NC(=O)[C@@H](NC(=O)[C@H](CO)NC(=O)[C@H](CC(C)C)NC(=O)[C@H](CCC(=O)O)NC(=O)[C@H](CO)NC(=O)[C@H](C)NC(=O)CC[C@H](NC(=O)CCCCCCCCCCCCCCCCC(=O)O)C(=O)O)[C@@H](C)O)[C@@H](C)O)C(=O)N[C@@H](CC(C)C)C(=O)N1CCC[C@H]1C(=O)N1CCC[C@H]1C(=O)N[C@H](C(=O)N[C@@H](CC(=O)O)C(=O)N[C@H](C(=O)NCC(=O)N[C@@H](CO)C(=O)N[C@@H](CCC(=O)O)C(=O)N[C@H](C(=O)N1CCC[C@H]1C(N)=O)[C@@H](C)O)C(C)C)[C@@H](C)O` [Compound 29, N^1-[(4S)-4-carboxy-4-(17-carboxyheptadecanoylamino)butanoyl]-[Ala1,Ser2,Glu3,Leu4,Ser5,Ala7,Gln8,Glu14,His17,Pro25,Pro28,Pro29,Asp31,Glu35,Pro37],des-(19-22)-human amylin] ({C18 diacid-γGlu}-ASELSTAQTQRLAEFLHHFGPILPPTDVGSETP-NH2), for which the EC50 in assay [1] was 3.08 pM; in assay [2], 5.2 pM.
For `CC[C@H](C)[C@H](NC(=O)[C@@H]1CCCN1C(=O)CNC(=O)[C@H](Cc1ccccc1)NC(=O)[C@H](CC(N)=O)NC(=O)[C@H](CC(N)=O)NC(=O)[C@H](CO)NC(=O)[C@H](CO)NC(=O)[C@H](Cc1c[nH]cn1)NC(=O)[C@H](CCCNC(=N)N)NC(=O)[C@H](CC(C)C)NC(=O)[C@H](Cc1ccccc1)NC(=O)[C@H](CCC(=O)O)NC(=O)[C@H](C)NC(=O)[C@H](CC(C)C)NC(=O)[C@H](CCCNC(=N)N)NC(=O)[C@H](CCC(N)=O)NC(=O)[C@@H](NC(=O)[C@H](C)NC(=O)[C@@H]1CSSC[C@H](NC(=O)[C@H](CCCCN)NC(=O)CC[C@H](NC(=O)CCCCCCCCCCCCCCCCCCC(=O)O)C(=O)O)C(=O)N[C@@H](CC(N)=O)C(=O)N[C@@H]([C@@H](C)O)C(=O)N[C@@H](C)C(=O)N[C@@H]([C@@H](C)O)C(=O)N1)[C@@H](C)O)C(=O)N[C@@H](CC(C)C)C(=O)N1CCC[C@H]1C(=O)N1CCC[C@H]1C(=O)N[C@H](C(=O)N[C@@H](CC(N)=O)C(=O)N[C@H](C(=O)NCC(=O)N[C@@H](CO)C(=O)N[C@@H](CC(N)=O)C(=O)N[C@H](C(=O)N1CCC[C@H]1C(N)=O)[C@@H](C)O)C(C)C)[C@@H](C)O` [cagrilintide, reference compound] the same measures were 2.53 pM and 1.58 pM.
In the same order, the values of `CC[C@H](C)[C@H](NC(=O)[C@H](C)NC(=O)CNC(=O)[C@H](Cc1ccccc1)NC(=O)[C@@H]1CCCN1C(=O)[C@H](CC(=O)O)NC(=O)[C@H](CO)NC(=O)[C@H](CO)NC(=O)[C@H](Cc1c[nH]cn1)NC(=O)[C@H](Cc1c[nH]cn1)NC(=O)[C@H](CC(C)C)NC(=O)[C@H](Cc1ccccc1)NC(=O)[C@H](CCC(=O)O)NC(=O)[C@H](C)NC(=O)[C@H](CC(C)C)NC(=O)[C@H](CCCNC(=N)N)NC(=O)[C@H](CCC(N)=O)NC(=O)[C@@H](NC(=O)[C@H](CCC(N)=O)NC(=O)[C@H](C)NC(=O)[C@@H](NC(=O)[C@H](CO)NC(=O)[C@H](CC(C)C)NC(=O)[C@H](Cc1c[nH]cn1)NC(=O)CNC(=O)[C@H](C)NC(=O)CC[C@H](NC(=O)CCCCCCCCCCCCCCCCCCC(=O)O)C(=O)O)[C@@H](C)O)[C@@H](C)O)C(=O)N1CCC[C@H]1C(=O)N[C@@H](CO)C(=O)N[C@@H](CO)C(=O)N[C@H](C(=O)N[C@@H](CC(=O)O)C(=O)N[C@H](C(=O)NCC(=O)N1CCC[C@H]1C(=O)N[C@@H](CC(=O)O)C(=O)N[C@H](C(=O)N1CCC[C@H]1C(N)=O)[C@@H](C)O)C(C)C)[C@@H](C)O` [Compound 7, N^1-[(4S)-4-carboxy-4-(19-carboxynonadecanoylamino)butanoyl]-[Ala1,Gly2,His3,Leu4,Ser5,Ala7,Gln8,Glu14,His17,Asp21,Pro22,Pro27,Asp31,Pro34,Asp35,Pro37]-human amylin] ({C20 diacid-γGlu}-AGHLSTAQTQRLAEFLHHSSDPFGAIPSSTDVGPDTP-NH2) are 1.81 pM and 1.68 pM.

(Values after patent US12116388B2, “Amylin receptor agonists” (Novo Nordisk A/S, priority 2022, dated 2024).)
